Measurements from PubChem BioAssay (NCI).
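The compound was tested at five concentrations on cells cultured in 96-well plates, with a 48-hour exposure period. The concentration for 50% growth inhibition is given as GI50. TGI: concentration producing complete growth inhibition.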

How the values were obtained:
Assay in all cases: NCI-60 cell line screen, 48 h
[1] = tested on: PC-3 prostate
[2] = tested on: KM12 colon
[3] = tested on: OVCAR-8 ovarian
[4] = tested on: MCF7 breast
[5] = tested on: MDA-MB-231 breast
[6] = tested on: NCI-H23 lung
[7] = tested on: TK-10 renal
[8] = tested on: MDA-MB-468 breast
[9] = tested on: T-47D breast
[10] = tested on: U251 CNS
[11] = tested on: MOLT-4 leukemia
[12] = tested on: UACC-62 melanoma
[13] = tested on: SR leukemia
[14] = tested on: SF-268 CNS
[15] = tested on: HCC-2998 colon
[16] = tested on: A498 renal
[17] = tested on: OVCAR-3 ovarian
[18] = tested on: HT29 colon
[19] = tested on: HOP-92 NSCLC
[20] = tested on: ACHN renal
[21] = tested on: SK-MEL-5 melanoma
[22] = tested on: HS 578T breast
[23] = tested on: UO-31 renal
[24] = tested on: LOX IMVI melanoma
[25] = tested on: SNB-19 CNS
[26] = tested on: NCI-H226 lung
[27] = tested on: M14 melanoma
[28] = tested on: SK-OV-3 ovarian
[29] = tested on: SN12C renal
[30] = tested on: UACC-257 melanoma
[31] = tested on: CAKI-1 renal
[32] = tested on: OVCAR-4 ovarian
[33] = tested on: 786-0 renal
[34] = tested on: SNB-75 CNS
[35] = tested on: RXF 393 renal
[36] = tested on: DU-145 prostate
[37] = tested on: K-562 leukemia
[38] = tested on: HCT-15 colon
[39] = tested on: HCT-116 colon
[40] = tested on: IGROV1 ovarian
[41] = tested on: EKVX NSCLC
[42] = tested on: HOP-62 NSCLC
[43] = tested on: BT-549 breast
[44] = tested on: MALME-3M melanoma
[45] = tested on: MDA-MB-435
[46] = tested on: NCI-H460 lung
[47] = tested on: HL-60(TB) leukemia
[48] = tested on: OVCAR-5 ovarian
[49] = tested on: CCRF-CEM leukemia
[50] = tested on: SK-MEL-28 melanoma
[51] = tested on: SF-539 CNS
[52] = tested on: SF-295 CNS
[53] = tested on: RPMI-8226 leukemia
[54] = tested on: SW-620 colon
[55] = tested on: COLO 205 colon
[56] = tested on: NCI-H522 lung
[57] = tested on: A549 NSCLC

`Cc1cccc(NC(=O)[C@]23CCC(C)(C)CC2C2=CCC4[C@@]5(C)C[C@@H](O)[C@H](O)[C@@](C)(CO)C5CC[C@@]4(C)[C@]2(C)CC3)c1` (some centres undefined) gave a GI50 [1] of 5.16 µM, a TGI [1] of 20.5 µM and a GI50 [2] of 14.1 µM. It also gave a TGI [2] of 30.8 µM, a GI50 [3] of 18.5 µM and a TGI [3] of 60.2 µM. It also gave a GI50 [4] of 5.71 µM, a TGI [4] of 19.2 µM and a GI50 [5] of 13.8 µM. The TGI [5] was 28.1 µM, the GI50 [6] was 14.6 µM and the TGI [6] was 28.8 µM. For the same molecule, the GI50 [7] was 16.5 µM, the TGI [7] was 35.8 µM and the GI50 [8] was 5.17 µM. The TGI [8] was 20.4 µM, the GI50 [9] was 7.45 µM and the TGI [9] was 20.7 µM. The GI50 [10] was 14.9 µM, the TGI [10] was 30.1 µM and the GI50 [11] was 7.87 µM. The TGI [11] was 52 µM, the GI50 [12] was 11.3 µM and the TGI [12] was 23.7 µM. It also gave a GI50 [13] of 16.7 µM, a TGI [13] greater than 100 µM and a GI50 [14] of 14.1 µM. It also gave a TGI [14] of 42.3 µM, a GI50 [15] of 13 µM and a TGI [15] of 26.2 µM. The GI50 [16] was 15.7 µM, the TGI [16] was 29.4 µM and the GI50 [17] was 14 µM. The TGI [17] was 28 µM, the GI50 [18] was 13.1 µM and the TGI [18] was 27 µM. It also gave a GI50 [19] of 8.64 µM, a TGI [19] of 23.1 µM and a GI50 [20] of 12.4 µM. The TGI [20] was 24.9 µM, the GI50 [21] was 11.9 µM and the TGI [21] was 24.3 µM. It also gave a GI50 [22] of 12.8 µM, a TGI [22] of 50.8 µM and a GI50 [23] of 7.07 µM. It also gave a TGI [23] of 20.3 µM, a GI50 [24] of 12.8 µM and a TGI [24] of 27.8 µM. It also gave a GI50 [25] of 18.4 µM, a TGI [25] of 47.4 µM and a GI50 [26] of 10.4 µM. For the same molecule, the TGI [26] was 22.9 µM, the GI50 [27] was 13.7 µM and the TGI [27] was 27.3 µM. For the same molecule, the GI50 [28] was 14.5 µM, the TGI [28] was 34.6 µM and the GI50 [29] was 12.6 µM. The TGI [29] was 25.5 µM, the GI50 [30] was 15.3 µM and the TGI [30] was 31.5 µM. For the same molecule, the GI50 [31] was 6.63 µM, the TGI [31] was 21.9 µM and the GI50 [32] was 11.5 µM. It also gave a TGI [32] of 25.2 µM, a GI50 [33] of 14.6 µM and a TGI [33] of 29.4 µM. It also gave a GI50 [34] of 6.02 µM, a TGI [34] of 39.1 µM and a GI50 [35] of 3.77 µM. For the same molecule, the TGI [35] was 17 µM, the GI50 [36] was 16.5 µM and the TGI [36] was 39.1 µM. For the same molecule, the GI50 [37] was 14.5 µM, the TGI [37] was 60.5 µM and the GI50 [38] was 10.8 µM. For the same molecule, the TGI [38] was 23.4 µM, the GI50 [39] was 10.7 µM and the TGI [39] was 22.5 µM. The GI50 [40] was 12.2 µM, the TGI [40] was 25.4 µM and the GI50 [41] was 12.8 µM. For the same molecule, the TGI [41] was 29.1 µM, the GI50 [42] was 14.9 µM and the TGI [42] was 29.4 µM. It also gave a GI50 [43] of 14.3 µM, a TGI [43] of 27.8 µM and a GI50 [44] of 14.7 µM. The TGI [44] was 28.3 µM, the GI50 [45] was 13.3 µM and the TGI [45] was 26.5 µM. It also gave a GI50 [46] of 12.5 µM, a TGI [46] of 25.6 µM and a GI50 [47] of 15.2 µM. The TGI [47] was 55.9 µM, the GI50 [48] was 13.3 µM and the TGI [48] was 26.4 µM. The GI50 [49] was 9.29 µM, the TGI [49] was 35.1 µM and the GI50 [50] was 13.3 µM. The TGI [50] was 26.5 µM, the GI50 [51] was 13.9 µM and the TGI [51] was 28 µM. For the same molecule, the GI50 [52] was 10 µM, the TGI [52] was 22.5 µM and the GI50 [53] was 6.25 µM. For the same molecule, the TGI [53] was 32 µM, the GI50 [54] was 15 µM and the TGI [54] was 29.7 µM. The GI50 [55] was 13.6 µM, the TGI [55] was 29.1 µM and the GI50 [56] was 14.6 µM. For the same molecule, the TGI [56] was 28.9 µM, the GI50 [57] was 22.2 µM and the TGI [57] was greater than 100 µM.
